# Assay results as given in patent publication US10986834B2, “Peptide-containing composition and stabilizer, stabilizing method, and storage method for peptide” (KANEKA CORPORATION, priority 2016, dated 2021).
# Settings: 1% by mass in distilled water at 25° C.
# Description: Potassium sulfate, dipotassium hydrogen phosphate, and potassium bicarbonate components were each dissolved in distilled water at 25° C. to be a concentration of 1% by mass and stirred sufficiently.
row,pH,SMILES
1,8.3,O=C([O-])O.[K+] [Potassium bicarbonate]
2,3.3,O=S(=O)([O-])[O-].[K+].[K+] [Potassium sulfate]

row,SMILES,pH
1,O=P([O-])([O-])O.[K+].[K+] [Dipotassium hydrogen phosphate],9.0
